Common to all, as to assay type: functional
Experiment [1] has as its system Spodoptera litura. Briefly: Antifeedant activity against Spodoptera litura in Ricinus communis leaves assessed as mean leaf area fed by dual choice leaf disc bioassay. Also on record: concentration or dose not given beside the values.
Experiment [2] deals with Spodoptera litura. Briefly: Antifeedant activity against Spodoptera litura in Ricinus communis leaves assessed as mean leaf area fed at 1 ug/cm'2 by dual choice leaf disc bioassay (reference value: 53 +/- 2.44 to 53.6 +/- 2.61 cm'2).
Experiment [3] relates to Spodoptera litura. Briefly: Antifeedant activity against Spodoptera litura in Ricinus communis leaves assessed as mean leaf area fed at 5 ug/cm'2 by dual choice leaf disc bioassay (reference value: 52.6 +/- 1.34 to 55.6 +/- 3.71 cm'2).
Experiment [4] relates to Spodoptera litura. Briefly: Antifeedant activity against Spodoptera litura in Ricinus communis leaves assessed as mean leaf area fed at 10 ug/cm'2 by dual choice leaf disc bioassay (reference value: 52.8 +/- 2.50 to 53.6 +/- 4.76 cm'2).
Experiment [5] concerns Henosepilachna vigintioctopunctata. Briefly: Antifeedant activity against Henosepilachna vigintioctopunctata in Solanum nigrum leaves assessed as mean leaf area fed by dual choice leaf disk bioassay. Also on record: concentration or dose not given beside the values.
Experiment [6] shares this test system. Description: Antifeedant activity against Henosepilachna vigintioctopunctata in Solanum nigrum leaves assessed as mean leaf area fed at 1 ug/cm'2 by dual choice leaf disk bioassay (reference value: 0.75 +/- 0.06 to 0.92 +/- 0.05 cm'2).
For experiment [7] the test system is unchanged. Briefly: Antifeedant activity against Henosepilachna vigintioctopunctata in Solanum nigrum leaves assessed as mean leaf area fed at 5 ug/cm'2 by dual choice leaf disk bioassay (reference value: 0.74 +/- 0.02 to 0.91 +/- 0.01 cm'2).
Experiment [8] shares this test system. Description: Antifeedant activity against Henosepilachna vigintioctopunctata in Solanum nigrum leaves assessed as mean leaf area fed at 10 ug/cm'2 by dual choice leaf disk bioassay (reference value: 0.78 +/- 0.04 to 0.99 +/- 0.17 cm'2).

On to `C/C=C(\C)C(=O)O[C@H]1C[C@@H](OC(C)=O)[C@@]2(C(=O)OC)CO[C@H]3[C@@H](O)[C@@](C)([C@]45O[C@@]4(C)[C@H]4C[C@@H]5O[C@@H]5OC=C[C@@]54O)[C@H]4[C@]1(CO[C@]4(O)C(=O)OC)[C@@H]32` [AZADIRACTIN], for which the Activity was found to be 60% with Spodoptera litura [1]; 20.3 cm2 in the experiment on Spodoptera litura [2]; 13.5 cm2 in the experiment with Spodoptera litura [3]; 5 cm2 in the experiment on Spodoptera litura [4]; 56% in experiment [5]; 0.4 cm2 in experiment [6]. Besides, the Activity worked out at 0.2 cm2 in experiment [7] and 0.05 cm2 in experiment [8].

Take `Cc1cc(O)c2c(c1)C(=O)c1cccc(O)c1C2=O` [CHRYSOPHANOL]: the Activity is given as 20% in the experiment with Spodoptera litura [1]; 40.4 cm2 with Spodoptera litura [2]; 24 cm2 in the experiment on Spodoptera litura [3]; 13.6 cm2 with Spodoptera litura [4]; 26% in experiment [5]; 0.61 cm2 in experiment [6]. For the same compound, the values for the Activity in experiment [7] and in experiment [8] were 0.43 cm2 and 0.25 cm2, respectively.

For the compound `Cc1cc(O)c2c(c1)C(=O)c1cc(O)cc(O)c1C2=O` [EMODIN], the Activity is given as 31% in the experiment with Spodoptera litura [1]; 33.2 cm2 with Spodoptera litura [2]; 20.5 cm2 in the experiment on Spodoptera litura [3]; 11 cm2 in the experiment with Spodoptera litura [4]; 44% in experiment [5]; 0.48 cm2 in experiment [6]. For the same compound, the results for the Activity in experiment [7] and in experiment [8] were 0.3 cm2 and 0.13 cm2, respectively.

Take `COc1cc(O)c2c(c1)C(=O)c1cc(C)cc(O)c1C2=O` [PHYSCION]: the Activity is 30% with Spodoptera litura [1]; 33.4 cm2 in the experiment with Spodoptera litura [2]; 21.6 cm2 with Spodoptera litura [3]; 11.3 cm2 in the experiment with Spodoptera litura [4]; 34% in experiment [5]; 0.52 cm2 in experiment [6]. The Activity in experiment [7] amounted to 0.32 cm2; in experiment [8], 0.15 cm2.

`COc1c2c(c(O)c3c1C(=O)c1coc(C)c1C3=O)OCO2` [VENTILONE B]: the Activity was 27% in the experiment with Spodoptera litura [1]; 34.9 cm2 with Spodoptera litura [2]; 23 cm2 in the experiment with Spodoptera litura [3]; 13 cm2 with Spodoptera litura [4]; 31% in experiment [5]; 0.56 cm2 in experiment [6]. The Activity in experiment [7] came to 0.37 cm2; in experiment [8], 0.19 cm2.

As to `COc1c2c(c(O)c3c1C(=O)C1=C(C[C@H](C)O[C@@H]1C)C3=O)OCO2` [VENTILOQUINONE A], the Activity in the experiment with Spodoptera litura [1] is recorded as 40%; with Spodoptera litura [2], 25.2 cm2; with Spodoptera litura [3] it was 19.8 cm2; in the experiment with Spodoptera litura [4], 7.2 cm2; in experiment [5], 47%; in experiment [6] it was 0.46 cm2. In addition, the results for the Activity in experiment [7] and in experiment [8] were 0.28 cm2 and 0.07 cm2, respectively.

On to `COc1c2c(c(OC)c3c1C(=O)C1=C(C3=O)[C@@H](C)O[C@@H](C)C1)OCO2` [VENTILOQUINONE B], for which the Activity is listed as 29% in the experiment on Spodoptera litura [1]; 33.8 cm2 in the experiment with Spodoptera litura [2]; 22.5 cm2 in the experiment on Spodoptera litura [3]; 11.6 cm2 with Spodoptera litura [4]; 32% in experiment [5]; 0.54 cm2 in experiment [6]. Moreover, the figures for the Activity in experiment [7] and in experiment [8] were 0.34 cm2 and 0.17 cm2, respectively.

On to `COc1cc(OC)c2c(c1OC)C(=O)C1=C(C2=O)[C@@H](C)O[C@@H](C)C1` [VENTILOQUINONE E], for which the Activity with Spodoptera litura [1] is 25%; in the experiment with Spodoptera litura [2] it was 35.1 cm2; with Spodoptera litura [3], 23.3 cm2; with Spodoptera litura [4], 13.3 cm2; in experiment [5], 29%; in experiment [6], 0.58 cm2. Also, the Activity in experiment [7] stood at 0.39 cm2; in experiment [8], 0.21 cm2.
